Test results reported in ChEMBL document CHEMBL5584270, “Synthesis and Evaluation of 1,3-Disubstituted Imidazolidine-2,4,5-triones as Inhibitors of Pyruvate Carboxylase” (ACS Med Chem Lett, 2024).
Active and inactive are the calls of the source. No cut-off for these calls is given here.

Experiments:
[1] = biological target: Carbonic anhydrase 2 (Homo sapiens) (UniProt P00918); test: Inhibition of human CA2 at 200 uM
Pyruvate carboxylase [2] = biological target: T1, Pyruvate carboxylase (Staphylococcus aureus (strain Mu50 / ATCC 700699), UniProt A0A0H3JRU9); test: Inhibition of Staphylococcus aureus Pyruvate carboxylase using pyruvate, HCO3-, ATP and NADH as substrate assessed as oxaloacetate formation by measuring NADH oxidation by spectrophotometry based malate dehydrogenase coupled enzyme assay
T1 sequence (A0A0H3JRU9 whole entry): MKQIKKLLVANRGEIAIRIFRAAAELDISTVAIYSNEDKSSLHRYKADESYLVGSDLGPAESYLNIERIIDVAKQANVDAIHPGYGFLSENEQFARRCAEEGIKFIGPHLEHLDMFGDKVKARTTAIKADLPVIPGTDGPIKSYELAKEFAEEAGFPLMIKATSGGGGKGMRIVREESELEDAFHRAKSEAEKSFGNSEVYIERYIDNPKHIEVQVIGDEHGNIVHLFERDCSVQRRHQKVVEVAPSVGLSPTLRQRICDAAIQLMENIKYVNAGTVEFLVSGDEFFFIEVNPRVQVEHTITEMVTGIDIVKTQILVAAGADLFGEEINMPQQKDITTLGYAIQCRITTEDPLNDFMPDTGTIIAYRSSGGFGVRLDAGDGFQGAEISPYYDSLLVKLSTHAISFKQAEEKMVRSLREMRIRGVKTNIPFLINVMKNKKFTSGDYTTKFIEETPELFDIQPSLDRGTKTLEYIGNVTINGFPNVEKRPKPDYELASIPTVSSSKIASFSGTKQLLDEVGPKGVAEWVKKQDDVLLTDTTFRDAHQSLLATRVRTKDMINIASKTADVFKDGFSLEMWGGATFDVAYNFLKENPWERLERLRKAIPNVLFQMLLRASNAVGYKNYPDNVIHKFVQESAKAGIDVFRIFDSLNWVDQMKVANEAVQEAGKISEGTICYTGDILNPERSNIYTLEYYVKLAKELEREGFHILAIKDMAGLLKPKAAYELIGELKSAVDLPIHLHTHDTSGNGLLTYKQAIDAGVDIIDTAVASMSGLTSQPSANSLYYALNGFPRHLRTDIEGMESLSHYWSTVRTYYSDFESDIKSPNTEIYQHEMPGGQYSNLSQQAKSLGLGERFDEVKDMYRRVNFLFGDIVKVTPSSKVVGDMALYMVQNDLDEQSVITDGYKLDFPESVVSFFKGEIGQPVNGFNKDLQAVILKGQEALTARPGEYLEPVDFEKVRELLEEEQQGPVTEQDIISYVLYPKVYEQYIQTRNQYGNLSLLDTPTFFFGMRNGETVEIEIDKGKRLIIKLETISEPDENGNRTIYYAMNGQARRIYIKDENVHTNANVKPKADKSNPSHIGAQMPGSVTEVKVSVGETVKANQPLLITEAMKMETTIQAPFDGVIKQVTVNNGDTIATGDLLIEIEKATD

Pseudomonas syringae = test: Inhibition of Pseudomonas syringae guanidine carboxylase using urea as substrate at 200 uM by coupled enzyme assay
[3] = biological target: Macrophage metalloelastase (Homo sapiens) (UniProt P39900); test: Inhibition of MMP-12 (unknown origin) at 50 uM
Homo sapiens = species on record: Homo sapiens; test: Inhibition of MDH (unknown origin)
Pyruvate carboxylase [4] = biological target: T1, Pyruvate carboxylase; test: Mixed type inhibition of Staphylococcus aureus pyruvate carboxylase assessed as inhibition constant pretreated with pyruvate followed by ATP, HCO3- and NADH addition by steady state kinetic analysis
Pyruvate carboxylase [5] = biological target: T1, Pyruvate carboxylase; test: Mixed type inhibition of Staphylococcus aureus pyruvate carboxylase assessed as inhibition constant pretreated with ATP followed by pyruvate, HCO3- and NADH addition by steady state kinetic analysis
Pyruvate carboxylase [6] = biological target: T1, Pyruvate carboxylase; test: Non-competitive inhibition of Staphylococcus aureus pyruvate carboxylase assessed as inhibition constant pretreated with ATP followed by pyruvate, HCO3- and NADH addition by steady state kinetic analysis
Pyruvate carboxylase [7] = biological target: T1, Pyruvate carboxylase; test: Inhibition of Staphylococcus aureus pyruvate carboxylase by FVB based high-throughput fixed time assay

Macrophage metalloelastase (Homo sapiens), sequence (P39900 106-470 limits assumed): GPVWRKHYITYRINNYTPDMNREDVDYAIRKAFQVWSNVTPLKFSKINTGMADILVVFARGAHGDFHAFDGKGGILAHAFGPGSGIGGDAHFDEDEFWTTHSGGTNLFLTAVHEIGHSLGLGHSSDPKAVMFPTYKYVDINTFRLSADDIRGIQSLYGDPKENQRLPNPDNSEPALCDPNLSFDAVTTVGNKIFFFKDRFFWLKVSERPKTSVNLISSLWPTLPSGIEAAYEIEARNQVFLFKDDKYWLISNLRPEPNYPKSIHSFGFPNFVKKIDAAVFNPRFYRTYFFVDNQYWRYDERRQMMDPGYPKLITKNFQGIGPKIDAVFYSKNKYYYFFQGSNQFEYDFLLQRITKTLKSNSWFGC

SMILES	inhibition [1]	IC50 (Pyruvate carboxylase [2])	inhibition (Pseudomonas syringae)	inhibition [3]	inhibition (Homo sapiens)	Ki (Pyruvate carboxylase [4])	Ki (Pyruvate carboxylase [5])	Ki (Pyruvate carboxylase [6])	IC50 (Pyruvate carboxylase [7])
CC(c1ccccc1)N1C(=O)C(=O)N(c2ccccc2)C1=O (configuration not stated)		35 µM			inactive				
COC(=O)CCN1C(=O)C(=O)N(Cc2ccccc2)C1=O		68 µM			inactive				
O=C1C(=O)N(c2ccccc2)C(=O)N1CCc1ccccc1		370 µM			inactive				
O=C1C(=O)N(c2ccccc2)C(=O)N1CCc1cccs1		92 µM			inactive				
O=C1C(=O)N(C2CCCc3ccccc32)C(=O)N1c1ccccc1 (configuration not stated)		59 µM			inactive				
CCOC(=O)CN1C(=O)C(=O)N(c2ccc(F)cc2)C1=O	inactive	3.4 µM	inactive	inactive	inactive				
CN1C(=O)C(=O)N(CC(=O)c2cccs2)C1=O	inactive	45 µM	inactive	inactive	inactive	5.2 µM		38 µM	35 µM
O=C(O)CN1C(=O)C(=O)N(Cc2ccccc2)C1=O	inactive	30 µM	inactive	inactive	inactive	9 µM		140 µM	
CCCOC(=O)CN1C(=O)C(=O)N(c2ccccc2)C1=O	inactive	5 µM	inactive	inactive	inactive				
CCOC(=O)CCN1C(=O)C(=O)N(c2ccc(F)cc2)C1=O	inactive	29 µM	inactive	inactive	inactive				
COC(=O)CN1C(=O)C(=O)N(c2ccccc2)C1=O		3.5 µM			inactive				
COc1ccc(N2C(=O)C(=O)N(Cc3ccccc3)C2=O)cc1	inactive	17 µM	inactive	inactive	inactive				
O=C1C(=O)N(c2ccccc2)C(=O)N1Cc1ccccc1	inactive	64 µM	inactive	inactive	inactive	24 µM		150 µM	
O=C1C(=O)N(c2ccc(Br)cc2)C(=O)N1Cc1ccccc1		290 µM			inactive				

Other lines, results leading:

inhibition [1]	IC50 (Pyruvate carboxylase [2])	inhibition (Pseudomonas syringae)	inhibition [3]	inhibition (Homo sapiens)	Ki (Pyruvate carboxylase [4])	Ki (Pyruvate carboxylase [5])	Ki (Pyruvate carboxylase [6])	IC50 (Pyruvate carboxylase [7])	SMILES
inactive	5.1 µM	inactive	inactive	inactive					CCOC(=O)CN1C(=O)C(=O)N(c2ccccc2)C1=O
inactive	9.3 µM	inactive	inactive	inactive					CCOC(=O)CN1C(=O)C(=O)N(CCc2ccccc2)C1=O
inactive	7.3 µM	inactive	inactive	inactive	0.58 µM	7 µM			CCOC(=O)CN1C(=O)C(=O)N(Cc2ccccc2)C1=O
inactive	12 µM	inactive	inactive	inactive					CCOC(=O)CN1C(=O)C(=O)N(Cc2ccco2)C1=O
	9 µM			inactive					CCOC(=O)CN1C(=O)C(=O)N(CC(=O)OCC)C1=O
inactive	5.2 µM	inactive	inactive	inactive	1.8 µM		14 µM		CCOC(=O)CN1C(=O)C(=O)N(Cc2cccs2)C1=O
inactive	7.9 µM	inactive	inactive	inactive					CCOC(=O)CN1C(=O)C(=O)N(CCc2cccs2)C1=O
